Counter-ions that a name gives are not always drawn.

The assay can be described thus: In vitro inhibition of calcium phosphate crystallization in human plasma (spectrophotometric). The format is biochemical. The following applies: 0-100 μM, 1.5 mM phosphate, 12.5 mM calcium, pH 7.4, 30 min, rt, read-out: Relative Potency (EC50, inhibition of calcium phosphate crystallization). How it is done: The in vitro efficacy of the IP4-4,6 substituted derivatives (e.g., Compounds 1 to 53) of the invention on the inhibition of calcium phosphate crystallization in human plasma samples was evaluated according to a spectrophotometric assay previously described in the art (Ferrer M, et al., Sci Rep 2017; 7:6858, doi:10.1038/s41598-017-07203-x).
A 96-well plate was employed. Plasma was spiked (1 volume of the IP4-4,6 substituted derivatives of the invention per 19 volumes of plasma) with increasing concentrations of the derivatives in the range of 0-100 μM. Plasma was then centrifuged at 10,000 g at rt and subsequently mixed with a mixture of 5 mM hydrogen phosphate and 41.67 mM calcium to attain final concentrations of 1.5 mM phosphate and 12.5 mM calcium, respectively. All reagent solutions were filtered, and pH adjusted to 7.4.
Crystallization of calcium phosphate was monitored spectrophotometrically for 30 min at rt by measuring the increments in absorbance at 550 nm using the Biotek Powerwave XS Microplate spectrophotometer (BioTek Instruments, Inc., Winooski, VT, US). The plate was incubated at rt in an orbital shaker and absorbance measured every 3 min.
Plasma crystallization was assessed based on slope measurement in the linear range between 6 and 24 min from plots of increase in absorbance versus logarithm of time. The efficacy of different myo-inositol phosphates derivatives in preventing in vitro formation of calcium phosphate crystals was assessed in human plasma samples using the slopes obtained between 6- and 24-min. Inhibition of crystallization was measured by comparing the slopes of the control sample (blank plasma) with those of samples containing the inhibitor as shown below: […]
As a reminder, the EC50 is the midpoint of the concentration-response curve. For the compound `COC(=O)NCCCCCOC1C(OP(=O)(O)O)C(OCCCCCNC(=O)OC)C(OP(=O)(O)O)C(OP(=O)(O)O)C1OP(=O)(O)O` (centres unmarked) [Compound 25, 4,6-O-bis(5-((methoxycarbonyl)amino)pentyl)-myo-inositol-1,2,3,5-tetrakis(phosphate) octasodium salt], the EC50 is no more than 5 µM.
Under `O=P(O)(O)OC1C(OCCC2CC2)C(OP(=O)(O)O)C(OP(=O)(O)O)C(OP(=O)(O)O)C1OCCC1CC1` (centres unmarked) [Compound 28, 4,6-O-bis(2-cyclopropylethyl)-myo-inositol-1,2,3,5-tetrakis(phosphate) octasodium salt] stands no more than 5 µM; under `O=P(O)(O)O[C@@H]1[C@@H](OCCC2CCCC2)[C@H](OP(=O)(O)O)[C@H](OP(=O)(O)O)[C@H](OP(=O)(O)O)[C@H]1OCCC1CCCC1` [Compound 29, 4,6-O-bis(2-cyclopentylethyl)-myo-inositol-1,2,3,5-tetrakis(phosphate) octasodium salt], no more than 5 µM.
With `CCCNC(=O)NCCCCCOC1C(OP(=O)(O)O)C(OCCCCCNC(=O)NCCC)C(OP(=O)(O)O)C(OP(=O)(O)O)C1OP(=O)(O)O` (centres unmarked) [Compound 30, 4,6-O-bis(5-(3-propylureido)pentyl)-myo-inositol-1,2,3,5-tetrakis(phosphate) octasodium salt], the EC50 was no more than 5 µM.
Regarding `O=C(O)CCn1cc(CO[C@@H]2[C@@H](OP(=O)(O)O)[C@H](OCc3cn(CCC(=O)O)nn3)[C@@H](OP(=O)(O)O)[C@@H](OP(=O)(O)O)[C@H]2OP(=O)(O)O)nn1` [Compound 31, 4,6-O-bis((1-(2-carboxyethyl)-1H-1,2,3-triazol-4-yl)methyl)-myo-inositol-1,2,3,5-tetrakis(phosphate) decasodium salt], the EC50 is no more than 5 µM.
As to `COCCCCCCn1cc(COC2C(OP(=O)(O)O)C(OCc3cn(CCCCCCOC)nn3)C(OP(=O)(O)O)C(OP(=O)(O)O)C2OP(=O)(O)O)nn1` (centres unmarked) [Compound 33, 4,6-O-bis((1-(6-methoxyhexyl)-1H-1,2,3-triazol-4-yl)methyl)-myo-inositol-1,2,3,5-tetrakis(phosphate) octasodium salt], the EC50 fell in the range of 5 to 10 µM.
In the case of `COCc1cn(CCCCOC2C(OP(=O)(O)O)C(OCCCCn3cc(COC)nn3)C(OP(=O)(O)O)C(OP(=O)(O)O)C2OP(=O)(O)O)nn1` (centres unmarked) [Compound 37, 4,6-O-bis(4-(4-(methoxymethyl)-1H-1,2,3-triazol-1-yl)butyl)-myo-inositol-1,2,3,5-tetrakis(phosphate) octasodium salt] it was 5 to 10 µM; in that of `COCc1cn(CCCCCCOC2C(OP(=O)(O)O)C(OCCCCCCn3cc(C(=O)O)nn3)C(OP(=O)(O)O)C(OP(=O)(O)O)C2OP(=O)(O)O)nn1` (centres unmarked) [Compound 41, 4-O-(6-(4-carboxy-1H-1,2,3-triazol-1-yl)hexyl)-6-O-(6-(4-(methoxymethyl)-1H-1,2,3-triazol-1-yl)hexyl)-myo-inositol-1,2,3,5-tetrakis(phosphate) nonasodium salt], no more than 5 µM.
In the case of `COc1ccc(CCCOC2C(OP(=O)(O)O)C(OCCCc3ccc(OC)cc3)C(OP(=O)(O)O)C(OP(=O)(O)O)C2OP(=O)(O)O)cc1` (centres unmarked) [Compound 43, 4,6-O-bis(3-(4-methoxyphenyl)propyl)-myo-inositol-1,2,3,5-tetrakis(phosphate) octasodium salt], the EC50 fell in the range of 5 to 10 µM.
In the case of `O=P(O)(O)OC1C(OCCCc2cccc(C(F)(F)F)c2)C(OP(=O)(O)O)C(OP(=O)(O)O)C(OP(=O)(O)O)C1OCCCc1cccc(C(F)(F)F)c1` (centres unmarked) [Compound 44, 4,6-O-bis(3-(3-(trifluoromethyl)phenyl)propyl)-myo-inositol-1,2,3,5-tetrakis(phosphate) octasodium salt] it was greater than 10 µM; in that of `O=C(NCCCOC1C(OP(=O)(O)O)C(OCCCNC(=O)NC2CCCC2)C(OP(=O)(O)O)C(OP(=O)(O)O)C1OP(=O)(O)O)NC1CCCC1` (centres unmarked) [Compound 47, 4,6-O-bis(3-(3-cyclopentylureido)propyl)-myo-inositol-1,2,3,5-tetrakis(phosphate) octasodium salt], no more than 5 µM.
Under `O=C(NCCCCCOC1C(OP(=O)(O)O)C(OCCCCCNC(=O)c2ccccc2)C(OP(=O)(O)O)C(OP(=O)(O)O)C1OP(=O)(O)O)c1ccccc1` (centres unmarked) [Compound 48, 4,6-O-bis(5-benzamidopentyl)-myo-inositol-1,2,3,5-tetrakis(phosphate) octasodium salt] stands greater than 10 µM; under `O=C(NCCCCCOC1C(OP(=O)(O)O)C(OCCCCCNC(=O)c2cccs2)C(OP(=O)(O)O)C(OP(=O)(O)O)C1OP(=O)(O)O)c1cccs1` (centres unmarked) [Compound 49, 4,6-O-bis(5-(thiophene-2-carboxamido)pentyl)-myo-inositol-1,2,3,5-tetrakis(phosphate) octasodium salt], 5 to 10 µM.
In the case of `CCCCCOC1C(OP(O)(O)=S)C(OCCCCC)C(OP(O)(O)=S)C(OP(O)(O)=S)C1OP(O)(O)=S` (centres unmarked) [Compound 50, 4,6-O-dipentyl-myo-inositol-1,2,3,5-tetrakis(thiophosphate) octasodium salt] it was greater than 10 µM.
For the compound `COCCCCCOC1C(OP(O)(O)=S)C(OCCCCCOC)C(OP(O)(O)=S)C(OP(O)(O)=S)C1OP(O)(O)=S` (centres unmarked) [Compound 51, 4,6-O-bis(5-Methoxypentyl)-myo-inositol-1,2,3,5-tetrakis(thiophosphate) octasodium salt], the EC50 was greater than 10 µM.
Under `O=C(O)CCCOC1C(OP(=O)(O)O)C(OCCCC(=O)O)C(OP(=O)(O)O)C(OP(=O)(O)O)C1OP(=O)(O)O` (centres unmarked) [Compound 52, 4,6-O-bis(3-carboxypropyl)-myo-inositol-1,2,3,5-tetrakis(phosphate) decasodium salt] stands no more than 5 µM; under `C#CCOC1C(OP(=O)(O)O)C(OCC#C)C(OP(=O)(O)O)C(OP(=O)(O)O)C1OP(=O)(O)O` (centres unmarked) [Compound 53, 4,6-O-Dipropargyl-myo-inositol-1,2,3,5-tetrakis(phosphate) octasodium salt], no more than 5 µM.

Source of the values: US20260337212A1, “IP4-4,6 SUBSTITUTED DERIVATIVE COMPOUNDS FOR USE IN THE TREATMENT, INHIBITION OF PROGRESSION, AND PREVENTION OF ECTOPIC CALCIFICATION” (SANIFIT THERAPEUTICS, S.A., priority 2022, published 2026).
